Test results: the SangsterLogP compilation

Assay: method code SF-HPLC, from DOI: 10.1002/(sici)1521-3838(199911)18:5<482::aid-qsar482>3.0.co;2-r
Conditions: pH 6.4

logD	SMILES
3.99	Cc1ccc(Nc2nnc(Cn3ccc4ccccc43)s2)cc1
3	Cc1ccc(-n2c(Cc3c(C)[nH]c4ccccc34)n[nH]c2=S)cc1
2.65	O=[N+]([O-])c1ccc2c(ccn2Cc2n[nH]c(=S)n2-c2ccccc2)c1
3.11	Cc1[nH]c2ccccc2c1Cc1nnc(Nc2ccccc2)s1
2.55	Cc1[nH]c2ccccc2c1Cc1n[nH]c(=S)n1-c1ccccc1

Further lines, the compound ahead of its results:

SMILES	logD
c1ccc2c(Nc3nnc(Cn4ccc5ccccc54)s3)cccc2c1	4.54
Cc1ccc(-n2c(Cn3ccc4ccccc43)n[nH]c2=S)cc1	3.2
S=c1[nH]nc(Cn2ccc3cc(Br)ccc32)n1-c1cccc2ccccc12	3.88
Cc1ccc(-n2c(Cn3ccc4cc([N+](=O)[O-])ccc43)n[nH]c2=S)cc1	3.17
S=c1[nH]nc(Cn2ccc3ccccc32)n1-c1ccccc1	2.68
